Measurements from US12653800B2, “Small molecule inhibitors of TLR2 signaling” (University of Maryland, Baltimore, priority 2015, dated 2026).

Test: Thin layer chromatography of C29 in NaOH or organic solvent (imine cleavage)
Type: physicochemical
Experimental: FIG. 11. C29 L reproduces the TLR2 inhibitory activity observed with C29. (A) C29 dissolved in NaOH generates ortho-vanillin (“C29L”) and 3-amino-2-methylbenzoic acid (“C29R”). (B) TLC plate coated with silica was spotted with C29 dissolved in 65 μM NaOH, C29 dissolved in ethyl acetate (organic solvent), and a mixture of both. The plate was placed in solvent and visualized using a KMnO4 stain. (C, D) Total RNA was extracted from murine peritoneal macrophages that had been pretreated for 1 hr with vehicle (65 μM NaOH), C29 (25 μM or 50 μM), C29L (25 μM or 50 μM), or C29R (25 μM or 50 μM) and then stimulated with P3C (50 ng/mL), P2C (100 ng/mL), or LPS (100 ng/mL) for 1 hr in the presence of vehicle, C29, C29L, or C29R. TNF-α mRNA was measured as described in FIG. 1, panel D. Quantitative real-time results are representative of 2 independent experiments each carried out in duplicate (*, p≤0.05; **, p≤0.01; ***, p≤0.001; ****, p≤0.0001).
To preclude cytotoxicity from DMSO, C29 was dissolved in 65 μM NaOH in H2O. […] The two cleavage products, C29L and C29R, were tested to determine if either would reproduce the TLR2 inhibitory activity of C29.

## COc1cccc(/C=N/c2cccc(C(=O)O)c2C)c1O [Compound C29]
Dissolved in 65 μM NaOH in H2O
  stability of imine linkage (TLC): cleaved into these two species
Dissolved in an organic solvent (ethyl acetate)
  stability of imine linkage (TLC): not when dissolved in an organic solvent
